Experiments:
CD26 = assay: ELISA: binding of gliadin, casein peptides, SK and ethyl mercury to CD26 (inhibition of anti-CD26 binding); settings: for % Binding of Gliadin, Casein, Streptokinase, or Mercury to CD26 and CD69: CD26 coated wells, % inhibition in binding of anti-CD26 to CD26; for ELISA O.D. at 492 nm: microwell coated with CD26 + competing antigen, peroxidase labeled rabbit anti-CD26
Description: (§1) Plates were incubated for one hour at 37° C. and washed five times for removal of unbound competing antigens. […] After proper incubation and washing, binding of these peptides and proteins to CD26 and CD69 was measured by addition of peroxidase substrate and measurement of color development at 492 nm.

CD69 = molecular target: T1, CD69 (Homo sapiens, UniProt Q07108); assay: ELISA: binding of gliadin, casein peptides, SK and ethyl mercury to CD69 (inhibition of anti-CD69 binding); settings: for % Binding of Gliadin, Casein, Streptokinase, or Mercury to CD26 and CD69: CD69 coated wells, % inhibition of anti-CD69 binding to CD69; for ELISA O.D. at 492 nm: microwell coated with CD69 + competing antigen, peroxidase labeled rabbit anti-CD69
T1 construct: purchased Bio-Synthesis Inc. (Lewisville, Tex.); host or cells: chemical synthesis
Description: as §1

[1] = molecular target: CD69 antibody binding epitope … (human); assay: competition ELISA, CD69-coated wells, read with peroxidase labeled rabbit anti-CD69

## Casein
CD26
  % Binding of Gliadin, Casein, Streptokinase, or Mercury to CD26 and CD69: 44%
  ELISA O.D. at 492 nm: 1.34 O.D.
CD69
  % Binding of Gliadin, Casein, Streptokinase, or Mercury to CD26 and CD69: 28%
  ELISA O.D. at 492 nm: 1.45 O.D.

## streptokinase [SK]
CD26
  % Binding of Gliadin, Casein, Streptokinase, or Mercury to CD26 and CD69: 77%
  ELISA O.D. at 492 nm: 0.72 O.D.
CD69
  % Binding of Gliadin, Casein, Streptokinase, or Mercury to CD26 and CD69: 86%
  ELISA O.D. at 492 nm: 0.48 O.D.

B1: Streptokinase (SK), P00779 27-440 (protein)
chain: IAGPEWLLDRPSVNNSQLVVSVAGTVEGTNQDISLKFFEIDLTSRPAHGGKTEQGLSPKSKPFATDSGAMSHKLEKADLLKAIQEQLIANVHSNDDYFEVIDFASDATITDRNGKVYFADKDGSVTLPTQPVQEFLLSGHVRVRPYKEKPIQNQAKSVDVEYTVQFTPLNPDDDFRPGLKDTKLLKTLAIGDTITSQELLAQAQSILNKNHPGYTIYERDSSIVTHDNDIFRTILPMDQEFTYRVKNREQAYRINKKSGLNEEINNTDLISEKYYVLKKGEKPYDPFDRSHLKLFTIKYVDVDTNELLKSEQLLTASERNLDFRDLYDPRDKAKLLYNNLDAFGIMDYTLTGKVEDNHDDTNRIITVYMGKRPEGENASYHLAYDKDRYTEEEREVYSYLRYTGTPIPDNPNDK
[1]
  % Binding of Gliadin, Casein, Streptokinase, or Mercury to CD26 and CD69 (% inhibition of anti-CD69 binding): 86%

Source: patent US7252957B2, “Identification of etiology of autism” (Immunosciences Lab., Inc., priority 2004, dated 2007)
